The results in this text go back to patent US12285395B2, “Pharmaceutical composition for preventing or treating allodynia caused by anticancer agents” (UNIVERSITY-INDUSTRY COOPERATION GROUP OF KYUNG HEE …, priority 2018, dated 2025).

Holding throughout (format): in vivo, c57/bl6 mice
In test [1] the test system is cold allodynia induced by paclitaxel. Briefly: Cold allodynia (acetone application), paclitaxel animal model, oral cinnamic acid. How it is done: Six-week-old mice (c57/bl6 mice) were prepared as an experimental animal. Paclitaxel (Sigma-Aldrich) dissolved at a concentration of 6 mg/mL in a 1:1 solution of Cremophor EL and ethanol was diluted to a concentration of 2 mg/mL and intraperitoneally injected 4 times at 2 mg/kg. The dosage was administered every other day on days 0, 2, 4, and 6. Significant pain was observed from about 10 days after the first dosage. The reaction that occurred by applying about 20 μL of acetone to the soles of both rear paws of the experimental animal was observed and recorded for about 15 s. Behaviors that are criteria for recording are an avoidance reaction, a behavior of shaking the soles of the paw, and a behavior of licking the soles of the paw. The evaluation was repeated a total of three times, and the average of the number of recorded behaviors was confirmed. As a pre-behavioral experiment, 50 mg/kg and 100 mg/kg of cinnamic acid was orally administered to experimental animals induced with allodynia, and the effects after 1 h and 2 h were confirmed.

Test [2] has as its system mechanical allodynia induced by paclitaxel. Briefly: Mechanical allodynia (von Frey filament 0.4 g), paclitaxel animal model, oral cinnamic acid. The following applies: mice. The procedure:
Six-week-old mice (c57/bl6 mice) were prepared as an experimental animal. Paclitaxel (Sigma-Aldrich) dissolved at a concentration of 6 mg/mL in a 1:1 solution of Cremophor EL and ethanol was diluted to a concentration of 2 mg/mL and intraperitoneally injected 4 times at 2 mg/kg. The dosage was administered every other day on days 0, 2, 4, and 6. Significant pain was observed from about 10 days after the first dosage. The number of reactions was recorded by stimulating the soles of both hind paws of the experimental animal 10 times using a von Frey filament at a pressure of 0.4 g. The behaviors that are criteria for recording are an avoidance reaction and a behavior of licking the soles of the paw. The recording for both paws was averaged and confirmed. As a pre-behavioral experiment, 50 mg/kg and 100 mg/kg of cinnamic acid was orally administered to experimental animals induced with allodynia, and the effects after 1 h and 2 h were confirmed.

Test [3] concerns mechanical allodynia induced by vincristine. Briefly: Mechanical allodynia (von Frey filament 0.4 g), vincristine animal model, oral cinnamic acid. The following applies: mice. How it is done: Six-week-old mice (c57/bl6 mice) were prepared as an experimental animal. Vincristine at a concentration of 1 mg/mL was injected intraperitoneally for 7 consecutive days at 0.1 mg/kg. Significant pain was observed from about 10 days after the first injection. The number of reactions was recorded by stimulating the soles of both hind paws of the experimental animal 10 times using a von Frey filament at a pressure of 0.4 g. The behaviors that are criteria for recording are an avoidance reaction and a behavior of licking the soles of the paw. The recording for both paws was averaged and confirmed. Experimental animals induced with allodynia were selected through a pre-behavioral experiment and orally administered with 50 mg/kg and 100 mg/kg of cinnamic acid, and the effects after 1 h and 2 h were confirmed.

Test [4] relates to cold allodynia induced by vincristine. Briefly: Cold allodynia (acetone application), vincristine animal model, oral cinnamic acid. How it is done:
Six-week-old mice (c57/bl6 mice) were prepared as an experimental animal. Vincristine at a concentration of 1 mg/mL was injected intraperitoneally for 7 consecutive days at 0.1 mg/kg. Significant pain was observed from about 10 days after the first injection. The reaction that occurred by applying about 20 μL of acetone to the soles of both rear paws of the experimental animal was observed and recorded for about 15 s. Behaviors that are criteria for recording are an avoidance reaction, a behavior of shaking the soles of the paw, and a behavior of licking the soles of the paw. The evaluation was repeated a total of three times, and the average of the number of recorded behaviors was confirmed. Experimental animals induced with allodynia were selected through a pre-behavioral experiment and orally administered with 50 mg/kg and 100 mg/kg of cinnamic acid, and the effects after 1 h and 2 h were confirmed.

In test [5] the test system is mechanical allodynia induced by oxaliplatin. Briefly: Mechanical allodynia (von Frey filament 0.4 g), oxaliplatin animal model, oral cinnamic acid. The following applies: mice, 10 mg/kg oral (FIG. 1). The procedure: Six-week-old mice (c57/bl6 mice) were prepared as an experimental animal.
Oxaliplatin (Sigma-Aldrich) dissolved in a 5% glucose solution at a concentration of 2 mg/mL was singly administered intraperitoneally to the experimental animal in an amount of 6 mg/kg. Significant pain was observed from about 3 days after intraperitoneal administration.
The number of reactions was recorded by stimulating the soles of both hind paws of the experimental animal 10 times using a von Frey filament at a pressure of 0.4 g.
The behaviors that are criteria for recording are an avoidance reaction and a behavior of licking the soles of the paw. The recording for both paws was averaged and confirmed.
Experimental animals induced with allodynia were selected through a pre-behavioral experiment, and the effects were confirmed at 2 h after oral administration of 10 mg/kg of cinnamic acid.

SMILES strings stand for the structures.

Regarding `O=C(O)/C=C/c1ccccc1` [cinnamic acid], the “time after administration up to which pain relief effect on cold allodynia was shown” value in test [1] (high dose 100 mg/kg p.o.) and in test [4] (high dose 100 mg/kg p.o.) was “up to 1 h” each time. Further, the “pain relief effect on cold allodynia” value in test [1] (mice, 50 mg/kg oral (FIG. 2)) was “no significant pain relief effect”; in test [4] (mice, 50 mg/kg oral (FIG. 3)), “no significant pain relief effect”. Moreover, the “pain relief effect on cold allodynia compared to control” value in test [1] (mice, 100 mg/kg oral, after 1 h (FIG. 2)) is “significant pain relief effect”; in test [4] (mice, 100 mg/kg oral, after 1 h (FIG. 3)), “significant pain relief effect”. For the same molecule, the “pain relief effect on mechanical allodynia” value in test [2] (50 mg/kg oral (FIG. 2)) and in test [3] (50 mg/kg oral (FIG. 3)) was “no significant pain relief effect” in each case. In addition, the “pain relief effect on mechanical allodynia compared to control” value in test [2] (100 mg/kg oral (FIG. 2)) and in test [3] (100 mg/kg oral (FIG. 3)) was “no significant pain relief effect” each time. Further, the “pain relief effect on mechanical allodynia compared to control (vehicle)” value in test [5] is recorded as “no significant pain relief effect”.
